Data: patent US6288082A, “Substituted 3-cyanoquinolines” (priority 1999, dated 2001)
“And” between values parts separate entries of the source, which are not always exact repeats. Equal values may be shown once. Where a name gives a salt, the structure may show the parent alone.

Molecular target: Mitogen Activated Protein Kinase (Mek-Erk)
Assay: Mitogen Activated Protein Kinase (MAPK) assay, coupled Mek-Erk
Type: biochemical, human
Conditions: MBP or Myc peptide substrate, pH 7.4
Description: Mitogen Activated Protein Kinase (MAPK) Assay
To evaluate inhibitors of the MAP (mitogen activated protein) kinase a two component coupled standard pharmacological test procedure, which measures phosphorylation of a serine/threonine residue in an appropriate sequence in the substrate in the presence and absence of a putative inhibitor, was used. Recombinant human MEK 1 (MAPKK) was first used to activate recombinant human ERK2 (MAPK) and the activated MAPK (ERK) was incubated with substrate (MBP peptide or MYC peptide) in the presence of ATP, Mg^+2 and radiolabeled ^33 P ATP. The phosphorylated peptide was captured on a P 81 phosphocellulose filter (paper filter or embedded in microtiter plate) washed and counted by scintillation methods.
The peptide substrates used in the assay are MBP, peptide substrate ([…]), or synthetic Myc substrate, ([…]·5 TFA. The recombinant enzymes used were prepared as GST fusion proteins of human ERK 2 and human MEK 1. Inhibitor samples were prepared as 10×stocks in 10% DMSO and an appropriate aliquot was used to deliver either 10 ug/ml for a single point screening dose or 100, 10, 1, and 0.1 uM final concentration for a dose response curve. Final DMSO concentrations were less than or equal to 1%.
The reaction was run as follows in 50 mM Tris kinase buffer, pH 7.4 in a reaction volume of 50 ul. The appropriate volume of kinase buffer and inhibitor sample was added to the tube. Appropriate dilution of enzyme was delivered to give 2-5 ug recombinant MAPK (Erk ) per tube. The inhibitor was incubated with MAPK (Erk) for 30 min at 0 deg. C. Recombinant Mek (MAPKK) (0.5-2.5 ug) or fully activated Mek (0.05-0.1 units) was added to activate the Erk and incubated for 30 min at 30° C. Then substrate and gamma ^33 P ATP was were added to give a final concentration of 0.5-1 mM MBPP or 250-500 uM Myc; 0.2-0.5 uCi gamma P 33 ATP/tube; 50 μM ATP final concentration. Samples were incubated at 30° C. for 30 minutes and the reaction was stopped by adding 25 μl of ice cold 10% TCA. After samples were chilled on ice for 30 min, 20 μl of sample was transferred onto P 81 phosphocellulose filter paper or appropriate MTP with embedded P 81 filter. Filter papers or MTP were washed 2 times with a large volume of 1% acetic acid, then 2 times with water. The filters or MTP were briefly air dried before addition of scintillant and samples were counted in the appropriate scintillation counter set up for reading ^33 P isotope. Samples included a positive control (activated enzyme plus substrate); a no enzyme control; a no substrate control; samples with different concentrations of putative inhibitor; and samples with reference inhibitors (other active compounds or non-specific inhibitors such as staurosporine or K252 B).
The raw data was captured as cpm. Sample replicates were averaged and corrected for background count. Mean cpm data was tabulated by group and % inhibition by a test compound was calculated as (corrected cpm control-corrected. cpm sample/control)×100=% inhibition. […] The results obtained for representative compounds of this invention are listed in TABLE 2 where there may be separate entries for the same compound; this is an indication that the compound was evaluated more than one time.

| IC50 | Structure (SMILES) |
| --- | --- |
| 55 µM | CCOc1cc2ncc(C#N)c(Nc3ccc4ncsc4c3)c2cc1OCC [Example 97, 4-(Benzothiazol-6-ylamino)-6,7-diethoxy-quinoline-3-carbonitrile HCl Salt] |
| > 100 µM | COc1cc2ncc(C#N)c(Nc3ccc4ncccc4c3)c2cc1OC [Example 153, 6,7-Dimethoxy-4-(quinoline-6-ylamino)-quinoline-3-carbonitrile] |
| > 100 µM | CCOc1cc2c(Nc3ccc4cn[nH]c4c3)c(C#N)cnc2cc1OC [Example 126, 6-Ethoxy-4-(1H-indazol-6-ylamino)-7-methoxyquinoline-3-carbonitrile] |
| 90 µM | COc1cc2ncc(C#N)c(Nc3cccc4ncccc34)c2cc1OC [Example 132, 6,7-Dimethoxy-4-(quinolin-5-ylamino)-quinoline-3-carbonitrile] |
| 4 µM | COc1cc2ncc(C#N)c(Nc3cccc4c3CCCC4)c2cc1OC [Example 155, 6,7-Dimethoxy-4-(5,6,7,8,-tetrahydro-naphthalen-1-ylamino)-quinoline-3-carbonitrile] |
| > 100 µM | COc1cccc2c(Nc3ccc4nn[nH]c4c3)c(C#N)cnc12 [Example 149, 4-(3H-benzotriazol-5-ylamino)-8-methoxy-quinoline-3-carbonitrile] |
| 3 µM | COc1ccc2ncc(C#N)c(Nc3ccc4cn[nH]c4c3)c2c1 [Example 141, 4-(1H-Indazol 6-ylamino)-6-methoxy-quinoline-3-carbonitrile] |
| > 100 µM | COc1cc2ncc(C#N)c(Nc3ccc4c(C)cc(=O)[nH]c4c3)c2cc1OC [Example 129, 6,7-Dimethoxy-4-(4-methyl-2-oxo-1,2-dihydro-quinolin-7-ylamino)-quinoline-3-carbonitrile] |
| > 100 µM and 100 µM | COc1cc2c(Nc3ccc4cn[nH]c4c3)c(C#N)cnc2c(OC)c1OC [Example 128, 4-(1H-Indazol-6-ylamino)-6,7,8-trimethoxy-quinoline-3-carbonitrile] |
| 35 µM | COc1cc2c(Nc3ccc4nn[nH]c4c3)c(C#N)cnc2c(OC)c1OC [Example 156, 4-(3H-Benzotriazol-5-ylamino)-6,7,8-Trimethoxy-quinoline-3-carbonitrile] |
| 6 µM | COc1ccc2c(Nc3ccc4cn[nH]c4c3)c(C#N)cnc2c1 [Example 143, 4-(1H-Indazol-6-ylamino)-7-methoxy-quinoline-3-carbonitrile] |
| 90 µM | COc1cc2ncc(C#N)c(Nc3cccc4cnccc34)c2cc1OC [Example 133, 4-(Isoquinolin-5-ylamino)-6,7-dimethoxy-quinoline-3-carbonitrile] |
| > 100 µM | COc1cc2ncc(C#N)c(Nc3ccc4[nH]c(C)nc4c3)c2cc1OC [Example 152, 6,7-Dimethoxy-4-(2-methyl-1H-benzoimidazol-5-ylamino)-quinoline-3-carbonitrile] |
| 0.5 µM | COc1cc2ncc(C#N)c(Nc3ccc4cn[nH]c4c3)c2cc1OC [Example 102, 6,7-Dimethoxy-4-(1H-indazol-6-ylamino)-quinoline-3-carbonitrile] |
| > 100 µM | CCOc1cc2ncc(C#N)c(Nc3ccc4c(c3)S(=O)(=O)C=C4)c2cc1OCC [Example 112, 4-(1,1-Dioxo-1H-benzo[b]thiophen-6-ylamino)-6,7-diethoxy-quinoline-3-carbonitrile] |
| > 100 µM | COc1cc2ncc(C#N)c(Nc3ccc(O)c4ncccc34)c2cc1OC [Example 135, 4-(8-Hydroxy-quinolin-5-ylamino)-6,7-dimethoxy-quinoline-3-carbonitrile] |
| 30 µM | COc1ccc2ncc(C#N)c(Nc3ccc4nn[nH]c4c3)c2c1 [Example 142, 4-(3H-Benzotriazol-5-ylamino)-6-methoxy-quinoline-3-carbonitrile] |
| > 100 µM | COc1ccc(OC)c2c(Nc3ccc4cn[nH]c4c3)c(C#N)cnc12 [Example 138, 4-(1H-Indazol-6-ylamino)-5,8-dimethoxy-quinoline-3-carbonitrile] |
| > 100 µM | COc1ccc2c(Nc3ccc4[nH]nnc4c3)c(C#N)cnc2c1 [Example 144, 4-(3H-benzotriazol-5-ylamino)-7-methoxy-quinoline-3-carbinitile] |
| 8 µM | COc1cc2c(Nc3ccc4cn[nH]c4c3)c(C#N)cnc2cc1OCCN(C)C [Example 167, 7-(2-Dimethylaminoethoxy)-4-(1H-indazol-6-ylamino)-6-methoxyquinoline-3-carbonitrile] |
| > 100 µM | COc1cc2ncc(C#N)c(Nc3cccc4cccnc34)c2cc1OC [Example 134, 6,7-Dimethoxy-4-(quinolin-8-ylamino)-quinoline-3-carbonitrile] |
| 35 µM | CCOc1cc2ncc(C#N)c(Nc3ccc4c(c3)C(=O)NC4=O)c2cc1OCC [Example 104, 4-(1,3-Dioxo-2,3-dihydro-1H-isoindol-5-ylamino)-6,7-diethoxy-quinoline-3-carbonitrile] |
| > 100 µM | COc1cc2ncc(C#N)c(Nc3ccc4sc(C)nc4c3)c2cc1OC [Example 130, 6,7-Dimethoxy-4-(2-methyl-benzothiazol-5-ylamino)-quinoline-3-carbonitrile] |
| > 100 µM | COc1cc2ncc(C#N)c(Nc3ccc4[nH]c(=O)sc4c3)c2cc1OC [Example 131, 6,7-Dimethoxy-4-(2-oxo-2,3-dihydro-benzothiazol-6-ylamino)-quinoline-3-carbonitrile] |
| > 100 µM | COc1cccc2c(Nc3ccc4cn[nH]c4c3)c(C#N)cnc12 [Example 148, 4-(1H-Indazol-6-ylamino)-8-methoxy-quinoline-3-carbonitrile] |
| > 100 µM | CCOc1cc2ncc(C#N)c(Nc3ccc4[nH]c(=O)oc(=O)c4c3)c2cc1OCC [Example 109, 4-(2,4-Dioxo-1,4-dihydro-2H-benzo[d][1,3]oxazin-6-ylamino)-6,7-diethoxy-quinoline-3-carbonitrile] |
| 15 µM | COc1cc2ncc(C#N)c(Nc3ccc4cn[nH]c4c3)c2cc1OCCCN1CCOCC1 [Example 139, 4-(1H-Indazol-6-ylamino)-7-methoxy-6-(3-morpholine-4-yl-propoxy)-quinoline-3-carbonitrile hydrochloride] |
| 3 µM | COc1ccc2c(Nc3ccc4[nH]ccc4c3)c(C#N)cnc2c1 [Example 146, 4-(1H-Indol-5-ylamino)-7-methoxy-quinoline-3-carbonitrile] |
| 35 µM | N#Cc1cnc2cc3c(cc2c1Nc1ccc2cn[nH]c2c1)OCCO3 [Example 125, 9-(1H-Indazol-6-ylamino)-2,3-dihydro[1,4]dioxino[2,3-g]quinoline-8-carbonitrile] |

Same assay, conditions: MBP or Myc peptide substrate, pH 7.4; hydrochloride

| IC50 | Structure (SMILES) |
| --- | --- |
| 22 µM and 15 µM | COc1cc2ncc(C#N)c(Nc3ccc4[nH]nnc4c3)c2cc1OCCCN1CCOCC1 [Example 140, 4-(3H-Benzotriazol-5-ylamino)-7-methoxy-6-(3-morpholin-4-yl-proloxy)-quinoline-3-carbonitrile hydrochloride] |
